Assay results: patent US20080261891A1, “COMPOSITIONS AND METHODS FOR USING SYRINGOPEPTIN 25A AND RHAMNOLIPIDS” (Utah State University, priority 2007, published 2008)
In brackets after ≈: the same amount, converted by molar mass. Where two headings read alike, the source gives them in different places. Where a SMILES comes first, the peptide text is derived from it. Bridges are numbered along the chain shown (N, C = ends). [ ]: non-standard residue; d: D form. The star is where a group is joined. ξ: configuration not given here. Decanoyl(3ξ-OH) = CCCCCCCC(O)CC(=O)*; Dab = NCC[CH](N)C(=O)O; Dhb = C/C=C(\N)C(=O)O

Key:
Mycobacterium smegmatis = type: cell-based
[1] = system: Bacillus subtilis (spores); assay: MIC, microbroth dilution method (spore germination); type: cell-based; conditions: inhibition of spore germination, 48 h
Protocol: (§1) The MIC of the compounds for the organisms was determined by the microbroth dilution method, described hereafter. The microorganisms were prepared as described above and resuspended in their optimal growth media (Table 1) to ˜10^5 CFU/mL containing SP 25A at 2, 3, 4, 5, 6, 7, 8, 16, 32 and 50 μg/mL in a total volume of 550 μL. RL concentrations of 2, 3, 4, 5, 6, 7, 8, 16, 32 and 60 μg/mL in a total volume of 550 μL were tested in a 48-well plate (Corning, N.Y.). The plates were incubated at optimal growth conditions for the respective organism and monitored for an increase in OD600 after 48 h by a Perkin-Elmer (HTS 7000) plate reader (Downers Grove, Ill.). […] Negative controls (no inhibition of growth) were included using saline in the assay for each compound. The lowest concentration at which there was no increase in OD over 48 h was reported as the MIC. Each MIC was determined in replicate with three separate tests per replication. The results of the three tests were averaged for each replicate.

[2] = system: Clostridium sporogenes (spores); assay: as above; type: cell-based; conditions: inhibition of spore germination, 48 h
Protocol: as §1

[3] = system: human embryonic kidney cells (HEK 293); assay: Toxicity to mammalian cells, percent cell death (Nucleocounter); conditions: 4 μg/mL and 8 μg/mL, 6, 24, and 48 h
Protocol: (§2) Toxicity of the two compounds to mammalian cells was assayed in cell culture using mouse enteroendocrine cells (STC-1), human embryonic kidney cells (HEK 293; ATCC CRL-1573), and human lung fibroblasts (LL47; ATCC CCL-135). […] The human embryonic kidney cells and human lung fibroblasts were grown as per the American Type Culture Collection's recommendation, while the mouse enteroendocrine cells were grown as described by Vincent et al. (2001, Proc. Natl. Acad. Sci., 99:2392-2397). Media and sera were purchased from HyClone Laboratories (Logan, Utah). All cells were grown in 10% fetal bovine serum (FBS).
(§3) The number in the parenthesis represents the concentration of each compound in μg/mL. The percent cell death was benchmarked to 100% lysis with the positive control. The number of total cells and dead cells were counted after 6, 24, and 48 h using a Nucleocounter Automated cell counting system (New Brunswick; Edison, N.J.). Briefly, cells (STC, 200,000 cells/well; HEK 293, 200,000 cells/well; and LL47, 100,000 cells/well) were incubated in the appropriate medium for 24 h prior to addition of fresh media containing the antimicrobial compounds. After addition of the antimicrobial compound, the cell cultures were incubated at 37° C. with 5% CO2 for 6, 24, and 48 h. Cells were harvested by trypsinization using 0.25% trypsin-EDTA for 2 min. The trypsin was neutralized by addition of 200 μL of serum containing fresh medium. The cells were then harvested and transferred to 1.5 mL tubes, centrifuged (3-5 min at <100×g), and resuspended in 200 μL of fresh medium. For the total cell count, 100 μL of the suspension was added to lysis buffer (Reagent A100 in the starting kit (Cat No. M1293-0020, New Brunswick Scientific) for 30 s, which was stabilized using 100 μL of Reagent B. A positive control of completely lysed cells was used along with a negative control using sterile PBS (pH 7.4). For dead cell counts, 100 μL of cell lysate was counted without the use of lysis buffer or stabilizing buffer. All cell counts were obtained using the Nucleocounter automated cell counting system. Data were reported as the percent of cell death. The toxicity testing was done in replicate using three wells per test.

[4] = system: human lung fibroblasts (LL47); assay: as above; conditions: 4 μg/mL and 8 μg/mL, 6, 24, and 48 h
Protocol: as §2, §3

[5] = system: mouse enteroendocrine cells (STC-1); assay: as above; conditions: 4 μg/mL and 8 μg/mL, 6, 24, and 48 h
Protocol: as §2, §3

[6] = system: organisms tested (gram-positive and gram-negative bacteria, Table 1)
[7] = system: selected human cancer cell lines;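 note: MTT dye viability readout in semi-confluent cancer cells, compound exposure 1-24 hours, MTT then 4 hours at 37 °C, compared against untreated negative control wells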
Protocol: Cancer cell assays can be performed using the MTT dye protocol. Viability of cells may be determined by the dye response. In the following procedure, approximately 1.5×10^4 cells per well can be added and viability may be determined with the cells in a semi-confluent state. The assay can be performed in a 96-well microtiter plate using a New Brunswick Cell Counter. After addition of the compound or compounds of the present invention, the plate may incubate for 1-24 hours. MTT may be added to each well including negative control wells untreated with the compounds of the present invention. The plate would then be incubated at 37° C. for 4 hours. The liquid contents of each well can then be removed, and isopropanol with 0.1 M HCl would then be added to each well. The plate can be sealed with parafilm to prevent evaporation of the isopropanol. The plate would then be allowed to sit for approximately 5-10 minutes in order to solubilize the precipitate. Purified water would then be added to each well.

## C/C=C(\NC(=O)C(C)NC(=O)C(C)NC(=O)C(CC(C)C)NC(=O)C(NC(=O)C(C)NC(=O)C(C)NC(=O)C(NC(=O)C1CCCN1C(=O)/C(=C/C)NC(=O)CC(O)CCCCCCC)C(C)C)C(C)C)C(=O)NC(C(=O)N/C(=C\C)C(=O)NC(C)C(=O)NC(C(=O)NC(C)C(=O)NC(C)C(=O)N/C(=C\C)C(=O)NC1C(=O)NC(CO)C(=O)NC(C)C(=O)NC(C(C)C)C(=O)NC(C)C(=O)NC(CCN)C(=O)NC(CCN)C(=O)NC(Cc2ccc(O)cc2)C(=O)OC1C)C(C)C)C(C)C (centres unmarked) [SP 25A, syringopeptin 25A] ({Decanoyl(3ξ-OH)}-[Dhb]PVAAVLAA[Dhb]V[Dhb]AVAA[Dhb]TSAVA[Dab][Dab]Y; ester 18-C; configuration not given here)
Mycobacterium smegmatis
  MIC: 4 µg/mL (≈ 1.67 µM)
[1]
  MIC: 4 µg/mL (≈ 1.67 µM)
[2]
  MIC: 4 µg/mL (≈ 1.67 µM)
[3]
  cytotoxicity (percent cell death): No significant (p>0.05) cytotoxicity
[4]
  cytotoxicity (percent cell death): No significant (p>0.05) cytotoxicity
[5]
  cytotoxicity (percent cell death): No significant (p>0.05) cytotoxicity
[6]
  MIC range for the organisms tested: 3 to 16 µg/mL
  MICs against gram-positive bacteria: ≤ 8 µg/mL
[6]; gram-negative organisms, except F. devorans
  growth inhibition of gram-negative organisms tested: did not inhibit the growth
[7]; Bone (U2OS)
  IC50: 101.47 µg/mL (≈ 42.3 µM)
[7]; Bone (U2OS), 1.00 ug/ml
  % cytotoxicity: −10.06%
[7]; Bone (U2OS), 2.50 ug/ml
  % cytotoxicity: −3.64%
[7]; Bone (U2OS), 5.00 ug/ml
  % cytotoxicity: 1.69%
[7]; Bone (U2OS), 10.00 ug/ml
  % cytotoxicity: 4.93%
[7]; Breast (MCF-7)
  IC50: 30.27 µg/mL (≈ 12.6 µM)
[7]; Breast (MCF-7), 1.00 ug/ml
  % cytotoxicity: −20.40%
[7]; Breast (MCF-7), 2.50 ug/ml
  % cytotoxicity: −1.12%
[7]; Breast (MCF-7), 5.00 ug/ml
  % cytotoxicity: 1.76%
[7]; Breast (MCF-7), 10.00 ug/ml
  % cytotoxicity: 16.52%
[7]; Breast (MDA-MB231)
  IC50: 10.14 µg/mL (≈ 4.23 µM)
[7]; Breast (MDA-MB231), 1.00 ug/ml
  % cytotoxicity: −12.40%
[7]; Breast (MDA-MB231), 2.50 ug/ml
  % cytotoxicity: 9.23%
[7]; Breast (MDA-MB231), 5.00 ug/ml
  % cytotoxicity: 21.98%
[7]; Breast (MDA-MB231), 10.00 ug/ml
  % cytotoxicity: 49.30%
[7]; Breast (MDA-MB435)
  IC50: 6.25 µg/mL (≈ 2.6 µM)
[7]; Breast (MDA-MB435), 1.00 ug/ml
  % cytotoxicity: 20.78%
[7]; Breast (MDA-MB435), 2.50 ug/ml
  % cytotoxicity: −5.22%
[7]; Breast (MDA-MB435), 5.00 ug/ml
  % cytotoxicity: 18.84%
[7]; Breast (MDA-MB435), 10.00 ug/ml
  % cytotoxicity: 79.98%
[7]; Cervical (HeLa)
  IC50: 25.50 µg/mL (≈ 10.6 µM)
[7]; Cervical (HeLa), 1.00 ug/ml
  % cytotoxicity: 1.68%
[7]; Cervical (HeLa), 2.50 ug/ml
  % cytotoxicity: 3.50%
[7]; Cervical (HeLa), 5.00 ug/ml
  % cytotoxicity: 1.08%
[7]; Cervical (HeLa), 10.00 ug/ml
  % cytotoxicity: 19.61%
[7]; Colon (HT29)
  IC50: 29.72 µg/mL (≈ 12.4 µM)
[7]; Colon (HT29), 1.00 ug/ml
  % cytotoxicity: 8.89%
[7]; Colon (HT29), 2.50 ug/ml
  % cytotoxicity: 23.85%
[7]; Colon (HT29), 5.00 ug/ml
  % cytotoxicity: 24.59%
[7]; Colon (HT29), 10.00 ug/ml
  % cytotoxicity: 16.83%
[7]; Lung (A549)
  IC50: 11.41 µg/mL (≈ 4.75 µM)
[7]; Lung (A549), 1.00 ug/ml
  % cytotoxicity: 15.66%
[7]; Lung (A549), 2.50 ug/ml
  % cytotoxicity: 13.51%
[7]; Lung (A549), 5.00 ug/ml
  % cytotoxicity: 41.14%
[7]; Lung (A549), 10.00 ug/ml
  % cytotoxicity: 43.82%
[7]; Ovarian (OVCAR3)
  IC50: 19.75 µg/mL (≈ 8.23 µM)
[7]; Ovarian (OVCAR3), 1.00 ug/ml
  % cytotoxicity: 6.42%
[7]; Ovarian (OVCAR3), 2.50 ug/ml
  % cytotoxicity: 16.30%
[7]; Ovarian (OVCAR3), 5.00 ug/ml
  % cytotoxicity: 16.41%
[7]; Ovarian (OVCAR3), 10.00 ug/ml
  % cytotoxicity: 25.31%
[7]; Prostate (DU145)
  IC50: 6.56 µg/mL (≈ 2.73 µM)
[7]; Prostate (DU145), 1.00 ug/ml
  % cytotoxicity: 26.92%
[7]; Prostate (DU145), 2.50 ug/ml
  % cytotoxicity: 23.60%
[7]; Prostate (DU145), 5.00 ug/ml
  % cytotoxicity: 45.22%
[7]; Prostate (DU145), 10.00 ug/ml
  % cytotoxicity: 76.25%
[7]; Stomach (AGS)
  IC50: 18.58 µg/mL (≈ 7.74 µM)
[7]; Stomach (AGS), 1.00 ug/ml
  % cytotoxicity: 4.00%
[7]; Stomach (AGS), 2.50 ug/ml
  % cytotoxicity: 13.87%
[7]; Stomach (AGS), 5.00 ug/ml
  % cytotoxicity: 26.88%
[7]; Stomach (AGS), 10.00 ug/ml
  % cytotoxicity: 26.90%
